Series [1] deals with A. fumigatus N-myristoyl transferase (Aspergillus fumigatus (strain ATCC MYA-4609 / CBS 101355 / FGSC A1100 / Af293) (Neosartorya fumigata), UniProt Q9UVX3). The series can be described thus: biochemical. The format is biochemical. As to conditions: read-out: IC50 (μM) NMT Enzyme (AfNMT).
Another series deals with human NMT-1 (Homo sapiens (Human), UniProt P30419). The series can be described thus: NMT enzyme inhibition scintillation proximity assay, human NMT-1. The format is biochemical.
human NMT-1, sequence (P30419 whole entry): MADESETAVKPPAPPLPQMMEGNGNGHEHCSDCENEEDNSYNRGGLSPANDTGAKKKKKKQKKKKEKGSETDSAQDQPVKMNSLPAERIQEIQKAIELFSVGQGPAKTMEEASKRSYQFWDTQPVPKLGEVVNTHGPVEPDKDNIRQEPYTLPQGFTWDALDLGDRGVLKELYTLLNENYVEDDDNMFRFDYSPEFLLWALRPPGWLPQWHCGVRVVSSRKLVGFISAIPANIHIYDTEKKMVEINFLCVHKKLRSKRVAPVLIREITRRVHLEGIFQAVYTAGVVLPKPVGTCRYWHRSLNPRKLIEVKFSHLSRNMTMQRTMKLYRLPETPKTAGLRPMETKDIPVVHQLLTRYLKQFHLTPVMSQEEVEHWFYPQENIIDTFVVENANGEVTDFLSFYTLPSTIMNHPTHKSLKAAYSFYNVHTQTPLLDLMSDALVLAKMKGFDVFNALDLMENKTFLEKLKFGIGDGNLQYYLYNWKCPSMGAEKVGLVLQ
In series [2] the target is T. brucei N-myristoyl transferase (Trypanosoma brucei brucei (strain 927/4 GUTat10.1), UniProt Q388H8). Put plainly: biochemical. In kind it is biochemical.
T. brucei N-myristoyl transferase, sequence (Q388H8 1-446): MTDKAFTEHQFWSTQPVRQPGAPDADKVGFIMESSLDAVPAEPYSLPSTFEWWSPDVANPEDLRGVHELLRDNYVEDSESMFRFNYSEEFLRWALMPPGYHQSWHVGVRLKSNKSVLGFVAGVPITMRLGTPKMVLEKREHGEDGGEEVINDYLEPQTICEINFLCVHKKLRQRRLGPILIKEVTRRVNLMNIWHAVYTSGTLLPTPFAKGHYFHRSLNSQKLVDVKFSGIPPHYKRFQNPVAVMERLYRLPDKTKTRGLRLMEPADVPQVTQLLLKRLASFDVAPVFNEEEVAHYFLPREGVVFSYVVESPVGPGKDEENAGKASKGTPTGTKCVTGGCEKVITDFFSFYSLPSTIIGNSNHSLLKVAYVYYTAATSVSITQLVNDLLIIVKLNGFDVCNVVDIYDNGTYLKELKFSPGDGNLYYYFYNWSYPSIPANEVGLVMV
Series [3] has as its system Trypanosome (T. brucei brucei). Put plainly: In-vitro antitrypanosomal efficacy assay (cell growth, resazurin). The format is cell-based. On the technique in general: The colour change of resazurin is a common sign of viable cells or microbes.
Method: To column 12, 200 μl media was added to provide a no cells control. Plates were then incubated at 37° C. in an atmosphere of 5% CO2 for 69 hours, before the addition of 20 μl of 500 μM rezasurin solution, and a further incubation period of 4 hours. […] Concentration effect curves were fitted using non-linear regression using XLFit 4.2 and EC50 values determined.
Series [4] in a line: CNS penetration: drug concentration in blood and brain after i.v. dosing. The format is in vivo. As to conditions: iv, female NMRI mouse, t = 5 min; for Kp at 5 min: brain / whole blood; for concentration at 5 min: average of three animals.
Method: Assessment of the CNS penetration of NMT inhibitors was determined in the female NMRI mouse following i.v. dosing (n=3 per dose group, concentration measured after t=5 min).
The test system of a further series is HT29. The series can be described thus: In-vitro antiproliferative assay, HT29. As to conditions: Homo sapiens, HT-29; Table 4; 72 h, Alamar blue; read-out: IC50 HT-29. In kind it is cell-based, human.
The test system of another series is MDA-MB-231. The series can be described thus: In-vitro antiproliferative assay, MDA-MB-231. As to conditions: Homo sapiens, read-out: IC50 MDA-MB-231. The format is cell-based, human.
A further series relates to HCT116. The series can be described thus: In-vitro antiproliferative assay, HCT116. The format is cell-based, human. The settings on record: Homo sapiens, read-out: IC50 HCT116.
The target in series [5] is L. major N-myristoyl transferase (Leishmania major, UniProt Q4Q5S8). In kind it is biochemical. As to conditions: Leishmania major NMT; value in parentheses; read-out: IC50 (μM) NMT Enzyme (LmNMT).
L. major N-myristoyl transferase, sequence (Q4Q5S8 1-421): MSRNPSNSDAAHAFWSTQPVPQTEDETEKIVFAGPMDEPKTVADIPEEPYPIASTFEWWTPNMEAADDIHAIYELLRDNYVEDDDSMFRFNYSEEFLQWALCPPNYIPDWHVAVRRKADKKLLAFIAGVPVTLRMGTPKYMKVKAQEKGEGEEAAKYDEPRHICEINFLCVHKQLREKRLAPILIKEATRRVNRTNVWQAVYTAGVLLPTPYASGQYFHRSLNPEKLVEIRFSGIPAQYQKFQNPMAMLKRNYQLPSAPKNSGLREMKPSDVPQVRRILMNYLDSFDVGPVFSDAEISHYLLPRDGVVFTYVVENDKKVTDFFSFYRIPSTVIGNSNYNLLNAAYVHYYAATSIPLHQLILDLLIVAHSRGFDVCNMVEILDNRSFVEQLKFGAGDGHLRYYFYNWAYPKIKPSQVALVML
Setting [6] is: value printed without enzyme tag in the NMT Enzyme column (taken as T. brucei NMT), read-out: IC50 (μM) NMT Enzyme.
Setting [7] is: value with no enzyme tag in the cell, taken as T. brucei NMT, read-out: IC50 (μM) NMT Enzyme.
[8] abbreviates: MDA-MB-231, Table 4, 72 h, Alamar blue.
[9] abbreviates: HCT-116, Table 4, 72 h, Alamar blue.
The mark [10] stands for this setting: brain, single i.v. dose 2.0 mg/kg, read-out: Conc (ng/ml in brain).
Setting [11] is: whole blood, single i.v. dose 2.0 mg/kg, read-out: Conc (ng/ml in blood).
The mark [12] stands for this setting: T. brucei brucei, blood stream form, variant 221.
The mark [13] stands for this setting: Human NMT-1, value in parentheses, read-out: IC50 (μM) NMT Enzyme (HuNMT-1).
The mark [14] stands for this setting: T. brucei NMT, value without parentheses, read-out: IC50 (μM) NMT Enzyme (T. brucei NMT).

The term IC50 denotes the concentration needed to halve the response being measured. As usually defined, the Kp is the ratio of the level in a tissue or fluid to that in plasma or blood.

The structures appear in SMILES notation. Read-outs that look alike come from different tables or passages of the source. Where only a bound is given, the exact number is not on record here.

`COc1cc2c(cc1OC)CN(c1ccc([S+](=O)([O-])Nc3c(C)nn(C)c3C)cn1)CC2` [DDD73476]: the IC50 in series [1] (AfNMT) is 4.8 µM; against human NMT-1 (HuNMT-1) it was 2.3 µM; in series [2] (setting [6]), 0.32 µM. The “ED50 (μM) T. brucei” value in series [3] (T. brucei cell growth) was found to be 1.8 µM.

For `Cc1nn(C)c(C)c1N(C)[S+](=O)([O-])c1c(Cl)cc(Br)cc1Cl` [DDD73490, 4-Bromo-2,6-dichloro-N-methyl-N-(1,3,5-trimethyl-1H-pyrazol-4-yl)-benzenesulfonamide], the IC50 turned out to be 3.9 µM in [1] (AfNMT), 4 µM against human NMT-1 (HuNMT-1) and 0.36 µM in series [2] (setting [6]). Besides, the Kp at 5 min in series [4] (single i.v. dose 0.33 mg/kg) amounted to 6. Besides, the concentration at 5 min in [4] (brain, single i.v. dose 0.33 mg/kg, read-out: Conc (ng/ml in brain)) turned out to be 314 ng/mL; in series [4] (whole blood, single i.v. dose 0.33 mg/kg, read-out: Conc (ng/ml in blood)) it was 52 ng/mL. Moreover, the “ED50 (μM) T. brucei” value in series [3] (T. brucei cell growth) was 2.8 µM.

As to `Cc1nn(C)c(C)c1NS(=O)(=O)c1ccc(N2CCc3cccc(N)c3C2)nc1` [DDD73498, 6-(8-Amino-3,4-dihydro-1H-isoquinolin-2-yl)-pyridine-3-sulfonic acid (1,3,5-trimethyl-1H-pyrazol-4-yl)-amide], the IC50 in [1] (AfNMT) was 14.7 µM; against human NMT-1 (HuNMT-1), 4.3 µM; in series [2] (setting [6]), 0.32 µM. The “ED50 (μM) T. brucei” value in series [3] (T. brucei cell growth) turned out to be 2.6 µM.

For `Cc1nn(C)c(C)c1N[S+](=O)([O-])c1ccc(-c2cccc(Cn3ccnc3)c2)cc1` [DDD88006, 3′-imidazol-1-ylmethyl-biphenyl-4-sulfonic acid (1,3,6-trimethyl-1H-pyrazol-4-yl)-amide], the IC50 in series [1] was 4.2 µM; in series [2] (setting [7]) it was 0.35 µM. The “ED50 (μM) T. brucei” value in series [3] (T. brucei cell growth) is 3.9 µM.

As to `CCN(CC)Cc1cccc(-c2ccc([S+](=O)([O-])N(C)c3c(C)nn(C)c3C)cc2)c1` [DDD88195, 3′-Diethylaminomethyl-biphenyl-4-sulfonic acid methyl-(1,3,5-trimethyl-1H-pyrazol-4-yl)-amide], the Kp at 5 min in series [4] (single i.v. dose 1.0 mg/kg) was found to be 0.8. Further, the concentration at 5 min in series [4] (brain, single i.v. dose 1.0 mg/kg, read-out: Conc (ng/ml in brain)) stood at 93 ng/mL; in series [4] (whole blood, single i.v. dose 1.0 mg/kg, read-out: Conc (ng/ml in blood)), 116 ng/mL. Further, the IC50 in [2] (setting [7]) came to 0.05 µM. Besides, the “ED50 (μM) T. brucei” value in series [3] (T. brucei cell growth) was determined as 0.51 µM.

For the compound `Cc1nn(C)c(C)c1N[S+](=O)([O-])c1c(Cl)cc(-c2cccc(CN3CCN(C)CC3)c2)cc1Cl` [DDD88558], the IC50 in the series with HT29 was 176 nM; in the series on MDA-MB-231 (setting [8]) it was 448 nM; in the series on HCT116 (setting [9]), 629 nM. Moreover, the “ED50 (μM) T. brucei” value in series [3] (T. brucei cell growth) stood at 0.009 µM.

With `CCN(CC)Cc1cccc(-c2ccc([S+](=O)([O-])Nc3c(CC(C)C)nn(C)c3C)cc2)c1` [DDD88638], the Kp at 5 min in [4] (single i.v. dose 2.0 mg/kg) is 1.35. Besides, the concentration at 5 min turned out to be 378 ng/mL in [4] (setting [10]) and 281 ng/mL in [4] (setting [11]). Moreover, in series [2] (setting [7]), the IC50 is 0.009 µM. The “ED50 (μM) T. brucei” value in [3] (T. brucei cell growth) was found to be 0.084 µM.

For `Cc1c(N[S+](=O)([O-])c2ccc(-c3cccc(CN(C)C)c3)cc2)c(CC(C)C)nn1C` [DDD99742], the Kp at 5 min in [4] (single i.v. dose 2.0 mg/kg) was 0.66. The values for the concentration at 5 min in series [4] (setting [10]) and in [4] (setting [11]) were 422 ng/mL and 642 ng/mL, respectively. Further, the “ED50 (μM) T. brucei” value in series [3] (T. brucei cell growth) came to 0.019 µM.

With `Cc1nn(C)c(C)c1N(C)[S+](=O)([O-])c1ccc(CCCCCCn2ccnc2)cc1` [DDD99754], the IC50 was greater than 1 µM in [1], 2.1 µM on human NMT-1 (HuNMT-1) and 0.105 µM in series [2] (setting [7]). For the same compound, in series [3] (T. brucei cell growth), the “ED50 (μM) T. brucei” value is greater than 1 µM.

In the case of `Cc1c(NS(=O)(=O)c2ccc(CCCC3CCN(C)CC3)cc2)c(CC(C)C)nn1C` [DDD99837, N-(3-isobutyl-1,5-dimethyl-1H-pyrazol-4-yl)-4-(3-(1-methylpiperidin-4-yl)propyl)benzenesulfonamide], in series [4] (single i.v. dose 3.0 mg/kg), the Kp at 5 min amounted to 0.26. Further, the concentration at 5 min in series [4] (brain, single i.v. dose 3.0 mg/kg, read-out: Conc (ng/ml in brain)) turned out to be 99 ng/mL; in series [4] (whole blood, single i.v. dose 3.0 mg/kg, read-out: Conc (ng/ml in blood)), 388 ng/mL. In [3] (setting [12]), the “ED50 (μM) T. brucei” value amounted to 0.036 µM.

In [4] (single i.v. dose 2.0 mg/kg), `Cc1nn(C)c(C)c1N(C(F)F)[S+](=O)([O-])c1c(Cl)cc(CCCC2CCN(C)CC2)cc1Cl` [DDD100097, 2,6-dichloro-N-(difluoromethyl)-4-(3-(1-methylpiperidin-4-yl)propyl)-N-(1,3,5-trimethyl-1H-pyrazol-4-yl)benzenesulfonamide] came in with a Kp at 5 min of 1.5. For the same compound, the concentration at 5 min worked out at 335 ng/mL in [4] (setting [10]) and 224 ng/mL in series [4] (setting [11]). Besides, the “ED50 (μM) T. brucei” value in series [3] (setting [12]) was found to be 0.001 µM.

Turning to `Cc1nn(C)c(C)c1N(C(F)F)[S+](=O)([O-])c1c(Cl)cc(CCCCC2CCN(C)CC2)cc1Cl` [DDD100144, 2,6-dichloro-N-(difluoromethyl)-4-(4-(1-methylpiperidin-4-yl)butyl)-N-(1,3,5-trimethyl-1H-pyrazol-4-yl)benzenesulfonamide], the IC50 in the series with MDA-MB-231 (MDA-MB-231, 72 h) is 218 nM; in the series on HCT116 (HCT-116, 72 h) it was 282 nM. For the same compound, the concentration at 5 min was 545 ng/mL in series [4] (setting [10]) and 413 ng/mL in [4] (setting [11]).

Compound `Cc1nn(C)c(C)c1N(CC(F)(F)F)[S+](=O)([O-])c1c(Cl)cc(CCCC2CCN(C)CC2)cc1Cl` [DDD100153, 2,6-dichloro-4-(3-(1-methylpiperidin-4-yl)propyl)-N-(2,2,2-trifluoroethyl)-N-(1,3,5-trimethyl-1H-pyrazol-4-yl)benzenesulfonamide] registered a Kp at 5 min in [4] (single i.v. dose 2.0 mg/kg) of 0.64. The concentration at 5 min in series [4] (setting [10]) worked out at 171 ng/mL; in series [4] (setting [11]), 269 ng/mL. For the same compound, in [3] (setting [12]), the “ED50 (μM) T. brucei” value is 0.023 µM.

As for `Cc1nn(C)c(C)c1N(C(F)F)[S+](=O)([O-])c1c(Cl)cc(CCCOC2CCN(C)CC2)cc1Cl` [DDD100169], the IC50 came to 249 nM in the series on MDA-MB-231 (setting [8]) and 419 nM in the series on HCT116 (setting [9]).

As for `Cc1nn(C)c(C)c1N[S+](=O)([O-])c1ccc(-c2cccc(-c3nccn3C)c2)cc1` [DDD100874], the results for the IC50 (in series [5]; on human NMT-1 (setting [13]); in series [2] (setting [14])) were greater than 1 µM, greater than 1 µM and 0.74 µM, respectively. For the same compound, the “ED50 (μM) T. brucei” value in series [3] (setting [12]) was greater than 1 µM.

In the case of `CCCCc1nn(C)c(C)c1N[S+](=O)([O-])c1ccc(Br)cc1` [DDD100875], the IC50 is greater than 1 µM in series [5], greater than 1 µM on human NMT-1 (setting [13]) and 2.68 µM in [2] (setting [14]). Moreover, the “ED50 (μM) T. brucei” value in series [3] (setting [12]) turned out to be 20.5 µM.

As to `Cc1nn(C)c(C)c1N[S+](=O)([O-])c1ccc(-c2cccc(-c3nccn3C)c2)cc1` [DDD100878], the IC50 in series [5] is 0.906 µM; at human NMT-1 (setting [13]), 2.4 µM; in series [2] (setting [14]) it was 0.262 µM. Besides, in [3] (setting [12]), the “ED50 (μM) T. brucei” value is greater than 1 µM.

With `Cc1nn(C)c(C)c1N[S+](=O)([O-])c1ccc(-c2cccc(-c3c[nH]cn3)c2)cc1` [DDD100879], the IC50 in series [5] was 1.59 µM; on human NMT-1 (setting [13]), 2.6 µM; in series [2] (setting [14]), 0.803 µM. Further, the “ED50 (μM) T. brucei” value in series [3] (setting [12]) was greater than 1 µM.

Regarding `Cc1c(N[S+](=O)([O-])c2ccc(Br)cc2)c(CCc2ccccc2)nn1C` [DDD100880], the IC50 (in series [5]; at human NMT-1 (setting [13]); in series [2] (setting [14])) was greater than 1 µM throughout. For the same compound, the “ED50 (μM) T. brucei” value in series [3] (setting [12]) was 21.4 µM.

For `Cc1c(N[S+](=O)([O-])c2ccc(CCCCC3CCN(C)CC3)cc2)c(Cc2ccccc2)nn1C` [DDD100883], the figures for the IC50 (in [5]; at human NMT-1 (setting [13]); in [2] (setting [14])) were 0.672 µM, greater than 1 µM and 0.023 µM, respectively. For the same compound, in series [3] (setting [12]), the “ED50 (μM) T. brucei” value stood at 0.427 µM.

`Cc1nn(C)c(C)c1N[S+](=O)([O-])c1ccc(-c2cccc(-c3ncc[nH]3)c2)cc1` [DDD100884]: the IC50 in [5] was greater than 1 µM; on human NMT-1 (setting [13]) it was greater than 1 µM; in series [2] (setting [14]), 1.08 µM. Besides, the “ED50 (μM) T. brucei” value in series [3] (setting [12]) is greater than 1 µM.

Source of the values: patent US9156811B2 (priority 2008, dated 2015).
